According to patent publication EP1203770A1 (priority 1992, dated 1994):
Several values for one entry are separate records, joined by “and”; a condition that tells them apart may be missing. Equal values may be shown once.

Biological target: T1, HIV-1 protease (Human immunodeficiency virus type 1 group M subtype B, UniProt P04585)
T1 construct: The protease (or proteinase), consisting of only 99 amino acids, is among the smallest enzymes known
Assay: In vitro HIV protease inhibitory assay (HIV Protease FITC Assay)
Type: biochemical
Conditions: for inhibition at 0.123 µM / inhibition at 0.37 µM / inhibition at 1.1 µM / inhibition at 3.3 µM / inhibition at 10 µM / inhibition at 30 µM / inhibition at 1 µM / inhibition at 100 µM / inhibition at 0.41 µM / inhibition at 1.23 µM / inhibition at 3.7 µM / inhibition at 11 µM / inhibition at 33 µM: read-out: HIV-1 Protease % Inhib; for Ki: read-out: HIV-1 FITC Ki; for inhibition at 1 µM: HIV-1 Dose 1.000 uM; for inhibition at 0.41 µM: HIV-1 Dose 0.410 uM; for inhibition at 1.23 µM: HIV-1 Dose 1.230 uM; for inhibition at 3.7 µM: HIV-1 Dose 3.700 uM; for inhibition at 11 µM: HIV-1 Dose 11.000 uM; for inhibition at 33 µM: HIV-1 Dose 33.000 uM
Description: The HIV protease screening assay is based on a fluorescently labeled substrate which can be resolved from nonlabeled cleavage product using avidin-polystyrene particles, 0.7-0.9 µm. The substrate is biotinylated at the amino terminal arginine and fluorescently labeled with fluorescein isothiocynate (FITC) at the carboxyl terminal lysine. […] Substrate (20 µl of 0.2 µM), sample (10 µl of desired concentraion), and enzyme (10 µl of 0.1 µM) are added to a 96 well pandex plate. The assay is run in 0.1 M sodium acetate buffer at pH 5.5 in the presence of 1.0 M sodium chloride and 0.05% NP-40 and incubated in the dark for one hour at room temperature. Avidin coated polystyrene beads {40 µl of 0.1% (w/v)} are added and the incubation is continued in the dark for an additional half hour. The labeled cleavage product is separated from the unreacted substrate via filtration and is read on the Idexx Screen Machine. The data are analyzed by appropriate computer algorithms to ascertain percent inhibition values.

Compound | inhibition at 0.123 µM (HIV-1 Dose 0.123 uM) [%] | inhibition at 0.37 µM (HIV-1 Dose 0.370 uM) [%] | inhibition at 1.1 µM (HIV-1 Dose 1.100 uM) [%] | inhibition at 3.3 µM (HIV-1 Dose 3.300 uM) [%] | inhibition at 10 µM (HIV-1 Dose 10.000 uM) [%] | inhibition at 30 µM (HIV-1 Dose 30.000 uM) [%] | inhibition at 100 µM (HIV-1 Dose 100.000 uM) [%] | further results
CCC(CC1CCCN1S(=O)(=O)c1ccc(C)cc1)c1cc(O)c(C(c2ccccc2)C2CC2)c(=O)o1 (stereo not shown) [Example 138, 2-[2-[3-(Cyclopropylphenylmethyl)-4-hydroxy-2-oxo-2H-pyran-6-yl]butyl]-1-[(4-methylphenyl)sulfonyl]-pyrrolidine] | < 10 | < 10 | 24.8 | 63.9 | 83.3 | 81.1 |  | 
C=CC(C1=C(O)CC(Cc2ccccc2)(c2ccccc2)OC1=O)c1ccccc1 (stereo not shown) [Example 168, 5,6-Dihydro-4-hydroxy-6-phenyl-6-(phenylmethyl)-3-(1-phenyl-2-propenyl)-2H-pyran-2-one] | < 10 | < 10 | < 10 | 10.4 | 43.4 | 48 |  | 
CCC(Cc1ccccc1)c1cc(O)c(C(c2cccc(NC(=O)Nc3ccccc3)c2)C2CC2)c(=O)o1 (stereo not drawn) [Example 212, 3-(α-Cyclopropyl-meta-[(phenylaminocarbonyl)amino]benzyl)-6-(α-ethylphenethyl)-4-hydroxy-2H-pyran-2-one] | < 10 | < 10 | 17.8 | 43.2 | 67.1 | 69.6 |  | 
C=CC(C1=C(O)CC(CCC)(CCc2ccccc2)OC1=O)c1ccccc1 (stereo not shown) [Example 174, 5,6-Dihydro-4-hydroxy-6-(2-phenylethyl)-3-(1-phenyl-2-propenyl)-6-propyl-2H-pyran-2-one] | 23.5 | 52.8 | 81.8 | 102 | 110 | 106 |  | Ki: 16 nM
O=c1oc(CCCF)cc(O)c1C(c1ccccc1)C1CC1 (stereo not shown) [Example 145, 3-(Cyclopropylphenylmethyl)-6-(3-fluoropropyl)-4-hydroxy-2H-pyran-2-one] | < 10 | < 10 | < 10 | 26.6 | 59.7 | 84.4 |  | 
CCCC(CC1CCCOC1)c1cc(O)c(C(c2ccccc2)C2CC2)c(=O)o1 (stereo not shown) [Example 72, 3-(Cyclopropyl-phenyl-methyl)-4-hydroxy-6-[1-(tetrahydro-pyran-3-ylmethyl)-butyl]-pyran-2-one] | 35 | 68.4 | 90.7 | 98.7 | 93.9 | 97.7 |  | Ki: 31 nM
CCC(Cc1ccccc1)c1cc(O)c(C(c2cccc(NC(=O)CCn3ccc4ccccc43)c2)C2CC2)c(=O)o1 (stereo not drawn) [Example 230, 3-(α-Cyclopropyl-meta-(3-(1-indolyl)propanoylamino)benzyl)-6-(α-ethylphenethyl)-4-hydroxy-2H-pyran-2-one] | < 10 | 15.3 | 48.6 | 71.3 | 91.1 | 85.3 |  | 
CC(c1cc(O)c(C(C2CC2)C2CC2)c(=O)o1)C1CC1 (stereo not shown) [Example 83, 6-(1-Cyclopropyl-ethyl)-3-dicyclopropylmethyl-4-hydroxy-pyran-2-one] |  |  |  |  | 72 |  | 93.5 | inhibition at 1 µM: 10.5%
3-(α-Cyclopropyl-meta-(tert-butyloxycarbonylamino)benzyl)-6-(α-cyclopropylmethyl-cyclopropylethyl)-4-hydroxy-2H-pyran-2-one [Example 38] |  |  |  |  |  |  |  | HIV-1 Protease % Inhib (HIV-1 Dose 0.123 uM): <10%; HIV-1 Protease % Inhib (HIV-1 Dose 0.370 uM): <10%; HIV-1 Protease % Inhib (HIV-1 Dose 1.100 uM): <10%; HIV-1 Protease % Inhib (HIV-1 Dose 3.300 uM): 26.72%; HIV-1 Protease % Inhib (HIV-1 Dose 10.000 uM): 58.44%; HIV-1 Protease % Inhib (HIV-1 Dose 30.000 uM): 69.94%
O=c1oc(CCCc2ccccc2)cc(O)c1C(c1ccccc1)C1CC1 (stereo not drawn) [Example 21, 3-(α-cyclopropylbenzyl)-4-hydroxy-6-(3-phenylpropyl)-2H-Pyran-2-one] |  |  |  |  | 83.7 |  | 110 | IC50: 9.6 µM; inhibition at 1 µM: 17.6%
CC(CC1CC1)(c1cc(O)c(C(C2CC2)C2CC2)c(=O)o1)C1CC1 (stereo not shown) [Example 84, 6-(1-Cyclopropyl-1-cyclopropylmethyl-ethyl)-3-dicyclopropylmethyl-4-hydroxy-pyran-2-one] |  |  |  |  | 91 |  |  | inhibition at 1 µM: 54.8%; HIV-1 Protease % Inhib (HIV-1 Dose 100.000 uM): 120.09% and 100%
CCC(C1=C(O)CC2(CCC(=O)CC2)OC1=O)c1ccccc1 (stereo not shown) [Example 115, 4-Hydroxy-3-(1-phenyl-propyl)-1-oxa-spiro[5.5]undec-3-ene-2,9-dione] |  |  |  |  |  |  | 94.8 | inhibition at 0.41 µM: < 10%; inhibition at 1.23 µM: 27.1%; inhibition at 3.7 µM: 56.9%; inhibition at 11 µM: 91.5%; inhibition at 33 µM: 103%; Ki: 1160 nM
CCCC1(CCc2ccccc2)CC(O)=C(C(c2ccc(COCOC)s2)C2CC2)C(=O)O1 (stereo not drawn) [Example 240, 2H-Pyran-2-one, 3-(α-cyclopropyl-[5-(methoxymethoxy-methyl)-thiophen-2-yl]-methyl)-5,6-dihydro-4-hydroxy-6-(2-phenylethyl)-6-propyl-] | < 10 | 40.6 | 68.7 | 95 | 113 | 104 |  | Ki: 29.2 nM
CCC(CC1CCOCC1)c1cc(O)c(C(c2ccccc2)C2CC2)c(=O)o1 (stereo not shown) [Example 58] |  |  |  |  |  |  | 110 | inhibition at 0.41 µM: 74.5%; inhibition at 1.23 µM: 91.1%; inhibition at 3.7 µM: 107%; inhibition at 11 µM: 108%; inhibition at 33 µM: 115%; Ki: 48 nM
CCC(Cc1ccccc1)c1cc(O)c(C(c2cccc(NS(=O)(=O)c3ccc(OC)cc3)c2)C2CC2)c(=O)o1 (stereo not drawn) [Example 185, 3-(α-Cyclopropyl-meta-(4-methoxyphenylsulfonylamino)benzyl)-6-(α-ethylphenethyl)-4-hydroxy-2H-pyran-2-one] | 40.5 | 71.4 | 89.1 | 95.9 | 103 | 92.9 |  | 
Cc1ccc(C(O)Cc2cc(O)c(C(c3ccccc3)C3CC3)c(=O)o2)cc1 (stereo not drawn) [Example 147, 3-(α-cyclopropylbenzyl)-4-hydroxy-6-(β-hydroxy-p-methylphenethyl)-2H-pyran-2-one] | < 10 | < 10 | 28.9 | 52.6 | 78.1 | 89.2 | 114 | 
CCCC1(Cc2ccccc2)CC(O)=C(C(CCc2ccccc2)c2ccccc2)C(=O)O1 (stereo not shown) [Example 177, 3-(1,3-Diphenylpropyl)-5,6-dihydro-4-hydroxy-6-(phenylmethyl)-6-propyl-2H-pyran-2-one] | < 10 | 19.7 | 48.2 | 74.2 | 89.3 | 95 |  | 
CCC(c1ccccc1)c1c(O)cc(-c2ccccc2)oc1=O (stereo not drawn) [Example 1, 3-(α-ethylbenzyl)-4-hydroxy-6-phenyl-2H-Pyran-2-one] |  |  |  |  | 45.5 |  | 80 | inhibition at 1 µM: < 10%
